Assay [1] addresses T1, DDB1- and CUL4-associated factor 1 (Homo sapiens, UniProt Q9Y4B6). Briefly: Binding affinity to Avi-tagged DCAF1 (1073 to 1399 residues) (unknown origin) expressed in baculovirus infected in Sf9 insect cells by SPR analysis. In general terms: In SPR one partner is held on a chip, and binding of the other changes the refractive index at the surface.
For assay [2], the target named is T1, DDB1- and CUL4-associated factor 1. Kind of assay: Binding affinity to Avi-tagged DCAF1 (1039 to 1401 residues) (unknown origin) expressed in baculovirus infected in Sf9 insect cells by NMR analysis.

Kd data for eleven compounds are collected here from BindingDB's records for doi:10.1021/acsmedchemlett.3c00104 (Novartis Institutes for Biomedical Research, 2023).

T1 sequence (Q9Y4B6 whole entry, the tested form may be a part): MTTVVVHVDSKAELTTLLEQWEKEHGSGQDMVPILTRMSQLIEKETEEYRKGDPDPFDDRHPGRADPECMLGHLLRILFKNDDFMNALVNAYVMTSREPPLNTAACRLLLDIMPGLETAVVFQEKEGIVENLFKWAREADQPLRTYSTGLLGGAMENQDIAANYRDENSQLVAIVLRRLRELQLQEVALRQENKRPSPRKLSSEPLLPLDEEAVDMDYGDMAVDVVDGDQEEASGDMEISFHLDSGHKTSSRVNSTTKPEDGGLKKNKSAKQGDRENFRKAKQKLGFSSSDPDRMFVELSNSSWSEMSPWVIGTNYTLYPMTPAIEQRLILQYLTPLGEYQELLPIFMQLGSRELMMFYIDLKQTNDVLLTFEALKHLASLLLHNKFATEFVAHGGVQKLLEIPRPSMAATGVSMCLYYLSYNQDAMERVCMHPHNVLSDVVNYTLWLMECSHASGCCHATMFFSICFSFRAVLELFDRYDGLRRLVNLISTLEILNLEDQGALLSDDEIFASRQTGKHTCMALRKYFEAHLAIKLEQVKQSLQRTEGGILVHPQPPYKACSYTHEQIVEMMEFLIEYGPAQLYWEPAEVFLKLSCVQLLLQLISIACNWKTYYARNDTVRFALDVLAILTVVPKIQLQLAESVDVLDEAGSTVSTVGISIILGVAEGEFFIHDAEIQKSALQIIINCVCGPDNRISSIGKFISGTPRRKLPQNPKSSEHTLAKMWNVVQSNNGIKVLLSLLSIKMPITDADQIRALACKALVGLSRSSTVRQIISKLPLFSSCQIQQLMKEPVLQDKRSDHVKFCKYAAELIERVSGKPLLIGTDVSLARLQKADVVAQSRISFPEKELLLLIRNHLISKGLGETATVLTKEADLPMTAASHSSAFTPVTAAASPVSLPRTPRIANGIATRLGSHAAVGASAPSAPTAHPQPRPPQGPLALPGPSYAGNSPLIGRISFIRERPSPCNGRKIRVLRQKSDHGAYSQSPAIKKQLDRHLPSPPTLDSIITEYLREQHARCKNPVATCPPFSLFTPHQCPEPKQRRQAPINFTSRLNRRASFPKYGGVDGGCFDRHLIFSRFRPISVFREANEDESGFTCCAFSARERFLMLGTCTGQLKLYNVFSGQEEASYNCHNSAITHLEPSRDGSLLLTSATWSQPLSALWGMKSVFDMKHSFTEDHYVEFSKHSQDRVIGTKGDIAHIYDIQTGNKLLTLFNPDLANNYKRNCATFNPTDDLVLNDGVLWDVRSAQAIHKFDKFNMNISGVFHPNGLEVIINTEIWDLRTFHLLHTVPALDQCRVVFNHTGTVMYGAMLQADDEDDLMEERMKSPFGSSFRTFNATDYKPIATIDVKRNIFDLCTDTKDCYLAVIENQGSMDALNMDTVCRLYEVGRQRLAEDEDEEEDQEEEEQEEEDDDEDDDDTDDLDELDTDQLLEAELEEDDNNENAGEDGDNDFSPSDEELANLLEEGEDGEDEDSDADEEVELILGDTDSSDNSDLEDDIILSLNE

Take `NC1=NCC(c2cccc(Oc3ccc(Cl)cc3)c2)C1` (stereo not drawn): the Kd is > 100 µM in assay [1] and > 500 µM in assay [2].
`Clc1ccc(C2(C3=Cc4ccccc4C4=NCCN34)CC2)cc1`: the Kd was found to be 41 µM in assay [1] and 13 µM in assay [2].
For `COc1ccc(C2(C3=Cc4ccccc4C4=NCCN34)CC2)cc1`, the Kd in assay [1] is > 50 µM.
Regarding `COc1ccc(C2(C3=Cc4cc(N5CCN(C)CC5)ccc4C4=NCCN34)CC2)cc1`, the Kd in assay [1] was determined as 11.4 µM. This counts as double-digit micromolar.
`COc1ccc(C2(c3nc(NCCN)c4ccccc4n3)CC2)cc1` had an equilibrium dissociation constant (Kd) in assay [1] of 26.7 µM. This Kd is about 2.3-fold higher than that of the compound before.
On the same count and under the same terms, to `COc1ccc(C2(c3nc(NCCN)c4ccc(N5CCN(C)CC5)cc4n3)CC2)cc1` belongs 5.6 µM.
`COc1ccc(C2(c3nc(NCCN)c4ccc(N5CCN(C(C)=O)CC5)cc4n3)CC2)cc1` registered a dissociation constant (Kd) in assay [1] of 1.5 µM.
`CN1CCN(c2ccc3c(NCCN)nc(C4(c5ccc(Cl)cc5)CCCC4)nc3c2)CC1` displayed a Kd in assay [1] of 0.098 µM.
In the case of `CC(=O)N1CCN(c2ccc3c(NCCN)nc(C4(c5ccc(Cl)cc5)CCCC4)nc3c2)CC1`, in assay [1], the Kd amounted to 0.047 µM.
Regarding `CN1CCN(c2ccc3c(NCCN)nc(C4(c5ccc(Cl)cc5)CCCCC4)nc3c2)CC1`, in assay [1], the Kd came to 0.083 µM.
Turning to `CC(C)(Cc1ccccc1)C1=Cc2ccccc2C2=NCCN12`, the dissociation constant (Kd) in assay [2] was 40 µM.

What is called Kd is the constant that tells how readily two partners part at equilibrium. A higher Kd goes with a looser complex.
